± gives the expanded uncertainty stated by the source.
Assay: xn = mol fraction of the nth substance listed
Conditions: 298.15 K, Liquid

CCCCCl [1-chlorobutane] + CC(=O)N(C)C
mass density [kg/m3]
Conditions | x2 = 0.0967 | x2 = 0.2105 | x2 = 0.2984 | x2 = 0.4019 | x2 = 0.499 | x2 = 0.5947 | x2 = 0.6992 | x2 = 0.7997 | x2 = 0.9015
100 kPa | 885.6 ± 0.4 | 891.8 ± 0.4 | 896.7 ± 0.4 | 902.5 ± 0.4 | 908.1 ± 0.4 | 913.3 ± 0.4 | 919.2 ± 0.4 | 924.7 ± 0.4 | 930.4 ± 0.4
2000 kPa | 887.5 ± 0.4 | 893.6 ± 0.4 | 898.4 ± 0.4 | 904.1 ± 0.4 | 909.6 ± 0.4 | 914.8 ± 0.4 | 920.6 ± 0.4 | 925.9 ± 0.4 | 931.6 ± 0.4
4000 kPa | 889.5 ± 0.4 | 895.5 ± 0.4 | 900.1 ± 0.4 | 905.8 ± 0.4 | 911.2 ± 0.4 | 916.2 ± 0.4 | 922.1 ± 0.4 | 927.3 ± 0.4 | 932.9 ± 0.4
6000 kPa | 891.4 ± 0.4 | 897.2 ± 0.4 | 901.9 ± 0.4 | 907.45 ± 0.41 | 912.7 ± 0.4 | 917.8 ± 0.4 | 923.4 ± 0.4 | 928.7 ± 0.4 | 934.1 ± 0.4
8000 kPa | 893.3 ± 0.4 | 899.1 ± 0.4 | 903.6 ± 0.4 | 909 ± 0.4 | 914.2 ± 0.4 | 919.2 ± 0.4 | 924.8 ± 0.4 | 930 ± 0.5 | 935.5 ± 0.5
10000 kPa | 895.3 ± 0.5 | 900.9 ± 0.5 | 905.3 ± 0.5 | 910.9 ± 0.5 | 915.8 ± 0.5 | 920.7 ± 0.5 | 926.2 ± 0.5 | 931.3 ± 0.5 | 936.7 ± 0.5
11900 kPa | – | – | – | 912.3 ± 0.5 | – | – | – | – | –
12000 kPa | 897.1 ± 0.5 | 902.6 ± 0.5 | 907 ± 0.5 | – | 917.3 ± 0.5 | 922.1 ± 0.5 | 927.6 ± 0.5 | 932.6 ± 0.5 | 937.9 ± 0.5
13900 kPa | – | – | – | 913.9 ± 0.5 | – | – | – | – | –
14000 kPa | 898.9 ± 0.5 | 904.4 ± 0.5 | 908.6 ± 0.5 | – | 918.8 ± 0.5 | 923.5 ± 0.5 | 929 ± 0.5 | 933.8 ± 0.5 | 939 ± 0.5
15900 kPa | – | – | – | – | – | – | – | 935.1 ± 0.5 | –
16000 kPa | 900.6 ± 0.5 | 906.1 ± 0.5 | 910.2 ± 0.5 | 915.4 ± 0.5 | 920.2 ± 0.5 | 924.8 ± 0.5 | 930.3 ± 0.5 | – | 940.3 ± 0.5
17900 kPa | 902.3 ± 0.6 | 907.6 ± 0.5 | – | – | – | – | – | 936.2 ± 0.5 | –
18000 kPa | – | – | 911.7 ± 0.5 | 916.9 ± 0.5 | 921.6 ± 0.5 | 926.2 ± 0.5 | 931.5 ± 0.5 | – | 941.5 ± 0.5
20000 kPa | 904.2 ± 0.6 | 909.3 ± 0.6 | – | – | – | – | 932.9 ± 0.5 | 937.7 ± 0.5 | 942.6 ± 0.5
20100 kPa | – | – | 913.5 ± 0.6 | 918.5 ± 0.6 | 923.1 ± 0.5 | 927.6 ± 0.5 | – | – | –

CCCCCCCl [1-chlorohexane] + CC(=O)N(C)C
mass density [kg/m3]
Conditions | x2 = 0.0952 | x2 = 0.2003 | x2 = 0.3011 | x2 = 0.4036 | x2 = 0.503 | x2 = 0.6051 | x2 = 0.6992 | x2 = 0.8013 | x2 = 0.8996
100 kPa | 877.1 ± 0.5 | 881.6 ± 0.5 | 886.4 ± 0.5 | 891.9 ± 0.5 | 897.5 ± 0.5 | 903.8 ± 0.4 | 910.4 ± 0.4 | 918.4 ± 0.4 | 926.8 ± 0.4
2000 kPa | 878.7 ± 0.5 | 883.2 ± 0.5 | 888 ± 0.5 | 893.41 ± 0.48 | 899 ± 0.5 | 905.2 ± 0.5 | 911.7 ± 0.5 | 919.7 ± 0.5 | 928.1 ± 0.4
4000 kPa | 880.4 ± 0.5 | 884.8 ± 0.5 | 889.5 ± 0.5 | 895 ± 0.5 | 900.4 ± 0.5 | 906.7 ± 0.5 | 913.1 ± 0.5 | 921 ± 0.5 | 929.3 ± 0.5
6000 kPa | 882 ± 0.6 | 886.4 ± 0.6 | 891.2 ± 0.6 | 896.5 ± 0.5 | 901.9 ± 0.5 | 908.1 ± 0.5 | 914.5 ± 0.5 | 922.3 ± 0.5 | 930.5 ± 0.5
8000 kPa | 883.6 ± 0.6 | 888 ± 0.6 | 892.7 ± 0.6 | 898 ± 0.6 | 903.4 ± 0.6 | 909.5 ± 0.5 | 915.9 ± 0.5 | 923.6 ± 0.5 | 931.7 ± 0.5
10000 kPa | 885.3 ± 0.6 | 889.6 ± 0.6 | 894.3 ± 0.6 | 899.6 ± 0.6 | 904.9 ± 0.6 | 910.9 ± 0.6 | 917.3 ± 0.5 | 925 ± 0.5 | 933.1 ± 0.5
11900 kPa | – | – | – | – | – | – | 918.6 ± 0.6 | – | –
12000 kPa | 886.8 ± 0.7 | 891.2 ± 0.7 | 895.8 ± 0.6 | 901 ± 0.6 | 906.3 ± 0.6 | 912.3 ± 0.6 | – | 926.3 ± 0.5 | 934.3 ± 0.5
14000 kPa | 888.4 ± 0.7 | 892.78 ± 0.68 | 897.2 ± 0.7 | 902.4 ± 0.7 | 907.6 ± 0.6 | 913.6 ± 0.6 | 919.9 ± 0.6 | 927.5 ± 0.6 | 935.5 ± 0.5
16000 kPa | 889.9 ± 0.7 | 894.1 ± 0.7 | 898.7 ± 0.7 | 903.8 ± 0.7 | 909 ± 0.7 | 914.9 ± 0.6 | 921.2 ± 0.6 | 928.7 ± 0.6 | 936.6 ± 0.6
18000 kPa | 891.3 ± 0.8 | 895.6 ± 0.7 | 900.1 ± 0.7 | 905.2 ± 0.7 | 910.3 ± 0.7 | 916.2 ± 0.7 | 922.6 ± 0.6 | 929.9 ± 0.6 | 937.7 ± 0.6
20000 kPa | 892.9 ± 0.8 | 897.2 ± 0.8 | 901.8 ± 0.7 | – | 911.8 ± 0.7 | 917.7 ± 0.67 | 924 ± 0.6 | 931.3 ± 0.6 | –
20100 kPa | – | – | – | 906.8 ± 0.7 | – | – | – | – | 939 ± 0.6
